Patent publication EP3262036B1, “THERAPEUTIC PYRIDAZINE COMPOUNDS AND USES THEREOF” (priority 2015, dated 2016)

Target: BRG1 (Homo sapiens, UniProt P51532)
Assay: biochemical
Type: binding
Conditions: BRG1 HTRF IC50 (µM)
Excerpt: IC50 measurements for inhibitors using BRG1 TR-FRET Binding Assay

BRG1, sequence (P51532 1448-1575): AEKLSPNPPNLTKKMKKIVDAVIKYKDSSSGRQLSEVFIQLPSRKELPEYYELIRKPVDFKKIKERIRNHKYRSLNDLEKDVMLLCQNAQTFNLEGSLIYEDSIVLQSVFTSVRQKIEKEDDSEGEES

| Compound | IC50 [µM] |
| --- | --- |
| Nc1nnc(-c2ccccc2O)cc1N1CCC2(CC1)C(=O)Nc1ccccc12 [Example 78, 1'-(3-amino-6-(2-hydroxyphenyl)pyridazin-4-yl)spiro[indoline-3,4'-piperidin]-2-one] | 0.0758 |
| CNC(=O)CN1C2CCC1CN(c1cc(-c3ccccc3O)nnc1N)C2 [Example 79, 2-(3-(3-amino-6-(2-hydroxyphenyl)pyridazin-4-yl)-3,8-diazabicyclo[3.2.1]octan-8-yl)-N-methylacetamide] | 0.139 |
| Nc1nnc(-c2ccccc2O)cc1N1CC2CCC(C1)N2c1ccc(C(=O)O)nc1 [Example 88, 5-(3-(3-amino-6-(2-hydroxyphenyl)pyridazin-4-yl)-3,8-diazabicyclo[3.2.1]octan-8-yl)picolinic acid] | 0.218 |
| CN(C)C1CCN(c2cc(-c3ccccc3O)nnc2N)CC1 [Example 91, 2-[6-amino-5-[4-(dimethylamino)-1-piperidyl]pyridazin-3-yl]phenol] | 0.0929 |
| C[C@H]1CN(c2cc(-c3ccccc3O)nnc2N)CCN1Cc1nccn1C [Example 92, (S)-2-(6-amino-5-(3-methyl-4-((1-methyl-1H-imidazol-2-yl)methyl)piperazin-1-yl)pyridazin-3-yl)phenol] | 0.0185 |
| C[C@@H]1CN(c2cc(-c3ccccc3O)nnc2N)CCN1Cc1nccn1C [Example 93, (R)-2-(6-amino-5-(3-methyl-4-((1-methyl-1H-imidazol-2-yl)methyl)piperazin-1-yl)pyridazin-3-yl)phenol] | 0.0238 |
| CC(C)n1cc(CN2CCN(c3cc(-c4ccccc4O)nnc3N)CC2)cn1 [Example 94, 2-[6-amino-5-[4-[(1-isopropylpyrazol-4-yl)methyl]piperazin-1-yl]pyridazin-3-yl]phenol] | 0.122 |
| N#Cc1cccc(CN2CCN(c3cc(-c4ccccc4O)nnc3N)CC2)c1 [Example 96, 3-[[4-[3-amino-6-(2-hydroxyphenyl)pyridazin-4-yl]piperazin-1-yl]methyl]benzonitrile] | 0.0569 |
| Nc1nnc(-c2ccccc2O)cc1N1CCN(Cc2ncco2)CC1 [Example 97, 2-[6-amino-5-[4-(oxazol-2-ylmethyl)piperazin-1-yl]pyridazin-3-yl]phenol] | 0.0714 |
| Nc1nnc(-c2ccccc2O)cc1N1CCN(Cc2ccncc2)CC1 [Example 98, 2-[6-amino-5-[4-(4-pyridylmethyl)piperazin-1-yl]pyridazin-3-yl]phenol] | 0.0796 |
| Cn1ccnc1CN1CCN(c2cc(-c3ccccc3O)nnc2N)CC1 [Example 99, 2-[6-amino-5-[4-[(1-methylimidazol-2-yl)methyl]piperazin-1-yl]pyridazin-3-yl]phenol] | 0.0324 |
| Cc1cc(CN2CCN(c3cc(-c4ccccc4O)nnc3N)CC2)no1 [Example 101, 2-[6-amino-5-[4-[(5-methylisoxazol-3-yl)methyl]piperazin-1-yl]pyridazin-3-yl]phenol] | 0.0653 |
| Nc1nnc(-c2ccccc2O)cc1N1CCN(Cc2n[nH]c3ccccc23)CC1 [Example 102, 2-[6-amino-5-[4-(1H-indazol-3-ylmethyl)piperazin-1-yl]pyridazin-3-yl]phenol] | 0.0259 |
| Cn1ncc2c(CN3CCN(c4cc(-c5ccccc5O)nnc4N)CC3)cccc21 [Example 103, 2-[6-amino-5-[4-[(1-methylindazol-4-yl)methyl]piperazin-1-yl]pyridazin-3-yl]phenol] | 0.0289 |
| Cc1nc(CN2CCN(c3cc(-c4ccccc4O)nnc3N)CC2)co1 [Example 104, 2-[6-amino-5-[4-[(2-methyloxazol-4-yl)methyl]piperazin-1-yl]pyridazin-3-yl]phenol] | 0.0569 |
| Cn1ncc2cc(CN3CCN(c4cc(-c5ccccc5O)nnc4N)CC3)ccc21 [Example 105, 2-[6-amino-5-[4-[(1-methylindazol-5-yl)methyl]piperazin-1-yl]pyridazin-3-yl]phenol] | 0.0279 |
| CC(C)(C)OC(=O)N1CCc2cc(CN3CCN(c4cc(-c5ccccc5O)nnc4N)CC3)ccc21 [Example 106, tert-butyl 5-[[4-[3-amino-6-(2-hydroxyphenyl)pyridazin-4-yl]piperazin-1-yl]methyl]indoline-1-carboxylate] | 0.689 |
| CC(C)(O)C(=O)N1C2CCC1CN(c1cc(-c3ccccc3O)nnc1N)C2 [Example 120, 1-(3-(3-amino-6-(2-hydroxyphenyl)pyridazin-4-yl)-3,8-diazabicyclo[3.2.1]octan-8-yl)-2-hydroxy-2-methylpropan-1-one] | 0.0444 |
| CN(C)C(=O)N1C2CCC1CN(c1cc(-c3ccccc3O)nnc1N)C2 [Example 121, 3-(3-amino-6-(2-hydroxyphenyl)pyridazin-4-yl)-N,N-dimethyl-3,8-diazabicyclo[3.2.1]octane-8-carboxamide] | 0.0225 |
| Nc1nnc(-c2ccccc2O)cc1N1CC2CCC(C1)N2C(=O)c1cncs1 [Example 126, (3-(3-amino-6-(2-hydroxyphenyl)pyridazin-4-yl)-3,8-diazabicyclo[3.2.1]octan-8-yl)(thiazol-5-yl)methanone] | 0.0203 |

Now from value to compound:

| IC50 [µM] | Compound |
| --- | --- |
| 0.0877 | Cn1cc(CN2CCN(c3cc(-c4ccccc4O)nnc3N)CC2)cn1 [Example 107, 2-[6-amino-5-[4-[(1-methylpyrazol-4-yl)methyl]piperazin-1-yl]pyridazin-3-yl]phenol] |
| 0.0176 | CC1CN(c2cc(-c3ccccc3O)nnc2N)CCN1S(=O)(=O)c1ccccc1 (stereo not shown) [Example 109, 2-(6-amino-5-(3-methyl-4-(phenylsulfonyl)piperazin-1-yl)pyridazin-3-yl)phenol] |
| 0.0219 | CCS(=O)(=O)N1CCN(c2cc(-c3ccccc3O)nnc2N)CC1C (stereo not shown) [Example 110, 2-(6-amino-5-(4-(ethylsulfonyl)-3-methylpiperazin-1-yl)pyridazin-3-yl)phenol] |
| 0.0197 | CC1CN(c2cc(-c3ccccc3O)nnc2N)CCN1S(=O)(=O)C1CC1 (stereo not shown) [Example 111, 2-(6-amino-5-(4-(cyclopropylsulfonyl)-3-methylpiperazin-1-yl)pyridazin-3-yl)phenol] |
| 0.0307 | CC1(C)CN(c2cc(-c3ccccc3O)nnc2N)CCN1S(C)(=O)=O [Example 112, 2-(6-amino-5-(3,3-dimethyl-4-(methylsulfonyl)piperazin-1-yl)pyridazin-3-yl)phenol] |
| 0.0535 | COCCS(=O)(=O)N1CCN(c2cc(-c3ccccc3O)nnc2N)C[C@H]1C [Example 117, (R)-2-(6-amino-5-(4-((2-methoxyethyl)sulfonyl)-3-methylpiperazin-1-yl)pyridazin-3-yl)phenol] |
| 0.0281 | C[C@@H]1CN(c2cc(-c3ccccc3O)nnc2N)CCN1S(=O)(=O)c1nccn1C [Example 118, (R)-2-(6-amino-5-(3-methyl-4-((1-methyl-1H-imidazol-2-yl)sulfonyl)piperazin-1-yl)pyridazin-3-yl)phenol] |
| 0.0879 | Cc1noc(C)c1C(=O)N1CCN(c2cc(-c3ccccc3O)nnc2N)CC1C (stereo not shown) [Example 123, (4-(3-amino-6-(2-hydroxyphenyl)pyridazin-4-yl)-2-methylpiperazin-1-yl)(3,5-dimethylisoxazol-4-yl)methanone] |
| 0.0258 | CC1CN(c2cc(-c3ccccc3O)nnc2N)CCN1C(=O)C1CC1c1ccccc1 (stereo not shown) [Example 124, (4-(3-amino-6-(2-hydroxyphenyl)pyridazin-4-yl)-2-methylpiperazin-1-yl)(2-phenylcyclopropyl)methanone] |
| 0.0426 | CC1CN(c2cc(-c3ccccc3O)nnc2N)CCN1C(=O)Cc1ccccn1 (stereo not shown) [Example 125, 1-(4-(3-amino-6-(2-hydroxyphenyl)pyridazin-4-yl)-2-methylpiperazin-1-yl)-2-(pyridin-2-yl)ethan-1-one] |
| 0.369 | CC(=O)N1[C@@H](C)CN(c2cc(-c3ccccc3O)nnc2N)C[C@@H]1C [Example 127, 1-((2S,6S)-4-(3-amino-6-(2-hydroxyphenyl)pyridazin-4-yl)-2,6-dimethylpiperazin-1-yl)ethan-1-one] |
| 0.505 | CC(=O)N1[C@H](C)CN(c2cc(-c3ccccc3O)nnc2N)C[C@H]1C [Example 128, 1-((2R,6R)-4-(3-amino-6-(2-hydroxyphenyl)pyridazin-4-yl)-2,6-dimethylpiperazin-1-yl)ethan-1-one] |
| 0.0349 | CC1CN(c2cc(-c3ccccc3O)nnc2N)CCN1C(=O)C(C)(C)O (stereo not shown) [Example 134, 1-(4-(3-amino-6-(2-hydroxyphenyl)pyridazin-4-yl)-2-methylpiperazin-1-yl)-2-hydroxy-2-methylpropan-1-one] |
| 0.0446 | CC1CN(c2cc(-c3ccccc3O)nnc2N)CCN1C(=O)c1cccnc1 (stereo not shown) [Example 135, (4-(3-amino-6-(2-hydroxyphenyl)pyridazin-4-yl)-2-methylpiperazin-1-yl)(pyridin-3-yl)methanone] |
| 0.0444 | Cc1cc(CC(=O)N2CCN(c3cc(-c4ccccc4O)nnc3N)CC2C)on1 (stereo not shown) [Example 136, 1-(4-(3-amino-6-(2-hydroxyphenyl)pyridazin-4-yl)-2-methylpiperazin-1-yl)-2-(3-methylisoxazol-5-yl)ethan-1-one] |
| 0.0126 | CC1CN(c2cc(-c3ccccc3O)nnc2N)CCN1C(=O)c1cncs1 (stereo not shown) [Example 138, (4-(3-amino-6-(2-hydroxyphenyl)pyridazin-4-yl)-2-methylpiperazin-1-yl)(thiazol-5-yl)methanone] |
| 0.106 | CC(=O)N1[C@H](C)CN(c2cc(-c3ccccc3O)nnc2N)C[C@@H]1C [Example 139, 1-((2S,6R)-4-(3-amino-6-(2-hydroxyphenyl)pyridazin-4-yl)-2,6-dimethylpiperazin-1-yl)ethan-1-one] |
| 0.0475 | CC(C)[C@H](N)C(=O)N1CCN(c2cc(-c3ccccc3O)nnc2N)CC1C (stereo partly drawn) [Example 140, (2S)-2-amino-1-(4-(3-amino-6-(2-hydroxyphenyl)pyridazin-4-yl)-2-methylpiperazin-1-yl)-3-methylbutan-1-one] |
| 0.033 | C[C@@H]1CN(c2cc(-c3ccccc3O)nnc2N)CCN1C(=O)[C@@H]1CCCO1 [Example 141, ((R)-4-(3-amino-6-(2-hydroxyphenyl)pyridazin-4-yl)-2-methylpiperazin-1-yl)((S)-tetrahydrofuran-2-yl)methanone] |
| 0.0975 | C[C@H]1CN(c2cc(-c3ccccc3O)nnc2N)CCN1C(=O)[C@@H]1CCCO1 [Example 142, ((S)-4-(3-amino-6-(2-hydroxyphenyl)pyridazin-4-yl)-2-methylpiperazin-1-yl)((S)-tetrahydrofuran-2-yl)methanone] |
